Laboratory results as given in patent US20190185499A1, “Novel Compounds” (Colgate-Palmolive Company, priority 2017, published 2019).

Assay: Lack of precipitate formation in aqueous solution
Assay type: physicochemical
Conditions: ~5% concentration solution in water; after three months following its preparation
Procedure: 3.220 g of sodium ascorbyl phosphate is dissolved into 100 mL water and then 1.567 g of SnF2 is added. The mixture is stirred into completely solubilized and heat at 60 C for one hour. The solution is directly analyzed by 13C-NMR and diluted into 5000 ppm and analyzed by LC-MS.
In one aspect, a solution of ˜5% concentration of stannous ascorbyl phosphate is prepared as described in the above examples.

## stannous ascorbyl phosphate
  formation of an observable precipitate: will not form an observable precipitate
